Data: patent US7880007B2, “Bicyclic substituted phenyl piperidine modulators of muscarinic receptors” (Vertex Pharmaceuticals Incorporated, priority 2004, dated 2011)

Experiments:
Assay type in all cases: cell-based
M3 muscarinic receptor = target: T1, M3 muscarinic receptor (Homo sapiens, UniProt P20309); experiment: Functional mobilization of intracellular calcium (FLIPR), M3-CHO cells; conditions: for Emax: 100% efficacy = maximum response obtained with the Carbachol control; for M3 Activity: M3-CHO cells, calcium mobilization (FLIPR)
T1 construct: expressed in transfected cells; host or cells: CHO (M3-CHO)
Method in brief: (§1)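 Calcium mobilisation read by FLIPR over 60 s (ex 488/em 540 nm) in recombinant muscarinic CHO lines loaded with calcium dye plus 1 mM probenecid. Compounds tested as agonists alone, or as inhibitors against EC80 carbachol after 15 min pre-incubation or co-addition; 0.5% DMSO; efficacy scaled to carbachol maximal response.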

M1 muscarinic receptor = target: T2, M1 muscarinic receptor (Homo sapiens, UniProt P11229); experiment: Functional mobilization of intracellular calcium (FLIPR), M1-CHO cells; conditions: for Emax: 100% efficacy = maximum response obtained with the Carbachol control; for M1 Activity: M1-CHO cells, calcium mobilization (FLIPR)
T2 construct: expressed in transfected cells; host or cells: CHO (M1-CHO)
T2 sequence (P11229 1-460): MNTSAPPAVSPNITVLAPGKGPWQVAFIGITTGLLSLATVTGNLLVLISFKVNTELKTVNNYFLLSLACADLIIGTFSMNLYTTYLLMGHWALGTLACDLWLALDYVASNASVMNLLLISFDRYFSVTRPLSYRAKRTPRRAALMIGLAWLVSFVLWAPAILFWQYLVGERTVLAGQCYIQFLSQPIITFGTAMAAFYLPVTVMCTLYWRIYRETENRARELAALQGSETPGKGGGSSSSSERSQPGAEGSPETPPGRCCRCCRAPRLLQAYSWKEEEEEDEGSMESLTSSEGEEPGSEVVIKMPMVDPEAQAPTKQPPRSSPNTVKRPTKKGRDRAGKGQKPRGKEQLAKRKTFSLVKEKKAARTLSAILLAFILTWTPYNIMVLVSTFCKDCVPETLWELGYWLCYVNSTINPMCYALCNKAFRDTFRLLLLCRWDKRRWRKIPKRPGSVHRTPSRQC
Method in brief: as §1

M2 muscarinic receptor = target: T3, M2 muscarinic receptor (Homo sapiens, UniProt P08172); experiment: Functional mobilization of intracellular calcium (FLIPR), M2-CHO cells; conditions: for Emax: 100% efficacy = maximum response obtained with the Carbachol control; for M2 Activity: M2-CHO cells, calcium mobilization (FLIPR)
T3 construct: expressed in transfected cells; host or cells: CHO (M2-CHO)
T3 sequence (P08172 1-466): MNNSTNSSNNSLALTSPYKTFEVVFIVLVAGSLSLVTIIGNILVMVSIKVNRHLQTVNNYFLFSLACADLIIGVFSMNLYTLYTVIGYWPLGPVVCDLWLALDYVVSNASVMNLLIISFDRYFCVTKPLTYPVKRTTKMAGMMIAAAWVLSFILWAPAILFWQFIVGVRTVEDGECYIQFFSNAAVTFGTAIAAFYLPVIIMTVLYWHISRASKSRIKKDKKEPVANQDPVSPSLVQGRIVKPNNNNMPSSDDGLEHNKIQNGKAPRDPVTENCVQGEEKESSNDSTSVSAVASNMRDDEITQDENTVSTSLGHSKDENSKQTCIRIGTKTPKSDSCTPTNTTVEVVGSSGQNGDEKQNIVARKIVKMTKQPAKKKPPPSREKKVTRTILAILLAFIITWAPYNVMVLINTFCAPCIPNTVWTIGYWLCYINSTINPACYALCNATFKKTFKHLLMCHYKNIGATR
Method in brief: as §1

M4 muscarinic receptor = target: T4, M4 muscarinic receptor (Homo sapiens, UniProt P08173); experiment: Functional mobilization of intracellular calcium (FLIPR), M4-CHO cells; conditions: for Emax: 100% efficacy = maximum response obtained with the Carbachol control; for M4 Activity: M4-CHO cells, calcium mobilization (FLIPR)
T4 construct: expressed in transfected cells; host or cells: CHO (M4-CHO)
T4 sequence (P08173 1-479): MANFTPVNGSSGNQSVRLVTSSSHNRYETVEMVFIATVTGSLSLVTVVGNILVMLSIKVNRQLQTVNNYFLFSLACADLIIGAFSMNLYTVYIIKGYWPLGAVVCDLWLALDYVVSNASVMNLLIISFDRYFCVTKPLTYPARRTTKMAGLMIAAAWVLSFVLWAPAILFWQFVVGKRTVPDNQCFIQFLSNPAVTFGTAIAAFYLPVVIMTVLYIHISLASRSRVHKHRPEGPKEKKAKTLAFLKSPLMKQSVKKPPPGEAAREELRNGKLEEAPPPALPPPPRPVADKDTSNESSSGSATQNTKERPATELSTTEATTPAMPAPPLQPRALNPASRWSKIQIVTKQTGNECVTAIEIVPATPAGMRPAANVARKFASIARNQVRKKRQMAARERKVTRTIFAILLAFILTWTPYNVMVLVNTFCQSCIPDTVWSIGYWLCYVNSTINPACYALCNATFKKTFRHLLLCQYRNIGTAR
Method in brief: as §1

T1 sequence (P20309 whole entry): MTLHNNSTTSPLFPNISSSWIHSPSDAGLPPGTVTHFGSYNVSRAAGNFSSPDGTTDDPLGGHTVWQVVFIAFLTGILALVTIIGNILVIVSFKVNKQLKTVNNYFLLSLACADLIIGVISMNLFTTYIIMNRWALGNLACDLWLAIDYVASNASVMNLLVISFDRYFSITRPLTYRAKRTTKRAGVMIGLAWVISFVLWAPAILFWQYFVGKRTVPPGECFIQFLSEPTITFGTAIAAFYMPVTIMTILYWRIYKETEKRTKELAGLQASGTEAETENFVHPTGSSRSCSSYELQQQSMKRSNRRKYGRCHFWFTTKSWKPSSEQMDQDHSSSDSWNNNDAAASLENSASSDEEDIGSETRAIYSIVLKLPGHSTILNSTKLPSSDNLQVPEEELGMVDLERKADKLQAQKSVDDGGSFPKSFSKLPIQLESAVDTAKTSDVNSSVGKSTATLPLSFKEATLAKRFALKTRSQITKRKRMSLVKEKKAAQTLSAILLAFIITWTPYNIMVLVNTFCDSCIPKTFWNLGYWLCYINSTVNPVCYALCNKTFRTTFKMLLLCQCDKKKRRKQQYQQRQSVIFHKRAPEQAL

| SMILES | Emax (M3 muscarinic receptor) [%] | M3 Activity (M3 muscarinic receptor) | Emax (M1 muscarinic receptor) [%] | M1 Activity (M1 muscarinic receptor) | Emax (M2 muscarinic receptor) [%] | M2 Activity (M2 muscarinic receptor) | Emax (M4 muscarinic receptor) [%] | M4 Activity (M4 muscarinic receptor) |
| --- | --- | --- | --- | --- | --- | --- | --- | --- |
| COc1ccccc1C1CCN(C2CC3CCC(C3)C2)CC1 (centres unmarked) [Compound 169] | < 25 | + (activity was measured to be greater than 5.0 μM) | 25 to 100 | ++ (activity was measured to be from 1.0 μM to 5.0 μM) | < 25 | + (activity was measured to be greater than 5.0 μM) | 25 to 100 | +++ (activity was measured to be less than 1.0 μM) |
| O=C(COc1ccccc1C1CCN([C@H]2C[C@H]3CC[C@H]2C3)CC1)c1ccccc1Cl [Compound 170] | < 25 | + (activity was measured to be greater than 5.0 μM) | < 25 | + (activity was measured to be greater than 5.0 μM) | < 25 | + (activity was measured to be greater than 5.0 μM) | 25 to 100 | +++ (activity was measured to be less than 1.0 μM) |
| Cc1ccccc1C1(O)CCN(CC2CC3C=CC2C3)CC1 (centres unmarked) [Compound 171] |  | + (activity was measured to be greater than 5.0 μM) | 25 to 100 | ++ (activity was measured to be from 1.0 μM to 5.0 μM) | < 25 | + (activity was measured to be greater than 5.0 μM) | 25 to 100 | +++ (activity was measured to be less than 1.0 μM) |
| COc1ccc(-c2ccc(CC#N)cc2)cc1C1CCN(C2CC3CCC(C3)C2)CC1 (centres unmarked) [Compound 173] | < 25 | + (activity was measured to be greater than 5.0 μM) | < 25 | + (activity was measured to be greater than 5.0 μM) | < 25 | + (activity was measured to be greater than 5.0 μM) | 25 to 100 | + (activity was measured to be greater than 5.0 μM) |
| COc1ccc(Cl)c(C2CCN(C3C[C@H]4CC[C@H]3C4)CC2)c1 (some centres unmarked) [Compound 174] | < 25 | + (activity was measured to be greater than 5.0 μM) | < 25 | + (activity was measured to be greater than 5.0 μM) | < 25 | + (activity was measured to be greater than 5.0 μM) | < 25 | + (activity was measured to be greater than 5.0 μM) |
| COc1ccccc1C1CCN(C2CCC(C3CCCCC3)CC2)CC1 (centres unmarked) [Compound 175] | < 25 | + (activity was measured to be greater than 5.0 μM) | < 25 | + (activity was measured to be greater than 5.0 μM) | < 25 | + (activity was measured to be greater than 5.0 μM) | < 25 | + (activity was measured to be greater than 5.0 μM) |
| COc1ccc(F)cc1C1CCN(C2CCCCCC2)CC1 [Compound 176] | < 25 | + (activity was measured to be greater than 5.0 μM) | 25 to 100 | +++ (activity was measured to be less than 1.0 μM) | 25 to 100 | ++ (activity was measured to be from 1.0 μM to 5.0 μM) | 25 to 100 | +++ (activity was measured to be less than 1.0 μM) |
| CCOC(=O)N1CCC(CN2CCC(c3cc(OC)cc(F)c3F)CC2)CC1 [Compound 177] | < 25 | + (activity was measured to be greater than 5.0 μM) | 25 to 100 | +++ (activity was measured to be less than 1.0 μM) | < 25 | + (activity was measured to be greater than 5.0 μM) | 25 to 100 | +++ (activity was measured to be less than 1.0 μM) |
| COc1ccc(-c2ccccc2Cl)cc1C1CCN([C@H]2C[C@H]3CC[C@H]2C3)CC1 [Compound 178] | < 25 | + (activity was measured to be greater than 5.0 μM) | < 25 | + (activity was measured to be greater than 5.0 μM) | < 25 | + (activity was measured to be greater than 5.0 μM) | 25 to 100 | + (activity was measured to be greater than 5.0 μM) |
| CCOC(=O)N1C2CCC1CC(N1CCC(c3ccc(F)cc3OC)CC1)C2 (centres unmarked) [Compound 179] | < 25 | + (activity was measured to be greater than 5.0 μM) | 25 to 100 | +++ (activity was measured to be less than 1.0 μM) | < 25 | + (activity was measured to be greater than 5.0 μM) | 25 to 100 | +++ (activity was measured to be less than 1.0 μM) |
| Cc1ccccc1C1CCN(C2CC3CCC2C3)CC1 (centres unmarked) [Compound 180] | < 25 | + (activity was measured to be greater than 5.0 μM) | 25 to 100 | ++ (activity was measured to be from 1.0 μM to 5.0 μM) | < 25 | + (activity was measured to be greater than 5.0 μM) | 25 to 100 | +++ (activity was measured to be less than 1.0 μM) |
| COc1ccc(Cl)cc1C1CCN(C2CCCCCC2)CC1 [Compound 181] | < 25 | + (activity was measured to be greater than 5.0 μM) | 25 to 100 | ++ (activity was measured to be from 1.0 μM to 5.0 μM) | 25 to 100 | ++ (activity was measured to be from 1.0 μM to 5.0 μM) | 25 to 100 | +++ (activity was measured to be less than 1.0 μM) |
